Literature values as cited in patent US20230076766A1, “METHOD FOR TREATMENT OF ROSACEA IN PATIENTS AGED 35-64 YEARS” (Sol-Gel Technologies Ltd., priority 2021, published 2023).

System: rosacea lesions
Conditions: BPO as the sole active agent

O=C(OOC(=O)c1ccccc1)c1ccccc1 [BPO, Benzoyl peroxide]
response of rosacea lesions: unresponsive
